Experimental data taken from ChEMBL document CHEMBL5465560, “Selectivity Literature for EUbOPEN Chemogenomic Library” (2024).

Assays:
[1] = target: Ephrin type-A receptor 5 (Homo sapiens) (UniProt P54756); experiment: Selectivity interaction (KinomeScan (DiscoverX)) EUB0000666a EPHA5; settings: at 10 µM
[2] = target: T1, Serine/threonine-protein kinase Sgk2 (Homo sapiens) (UniProt Q9HBY8); experiment: Selectivity interaction (SelectScreen profiling (Invitrogen)) EUB0000607a SGK2; settings: at 2 µM
T1 sequence (whole entry): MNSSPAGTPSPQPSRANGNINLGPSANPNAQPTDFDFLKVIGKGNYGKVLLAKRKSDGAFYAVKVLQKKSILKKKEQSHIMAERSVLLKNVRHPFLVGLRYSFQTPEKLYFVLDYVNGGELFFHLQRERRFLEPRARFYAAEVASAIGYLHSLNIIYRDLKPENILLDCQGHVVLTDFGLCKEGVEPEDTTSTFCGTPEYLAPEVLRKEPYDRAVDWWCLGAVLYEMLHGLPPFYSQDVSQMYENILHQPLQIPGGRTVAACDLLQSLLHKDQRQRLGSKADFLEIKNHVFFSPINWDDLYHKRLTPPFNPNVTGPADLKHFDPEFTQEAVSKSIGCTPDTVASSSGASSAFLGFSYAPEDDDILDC

[3] = target: Protein kinase C beta type (Homo sapiens, UniProt P05771); experiment: Selectivity interaction (Upstate Kinase Profiler service (Millipore)) EUB0000056c PRKCB; settings: at 1 µM
Chain of Protein kinase C beta type (P05771 2-671 limits assumed): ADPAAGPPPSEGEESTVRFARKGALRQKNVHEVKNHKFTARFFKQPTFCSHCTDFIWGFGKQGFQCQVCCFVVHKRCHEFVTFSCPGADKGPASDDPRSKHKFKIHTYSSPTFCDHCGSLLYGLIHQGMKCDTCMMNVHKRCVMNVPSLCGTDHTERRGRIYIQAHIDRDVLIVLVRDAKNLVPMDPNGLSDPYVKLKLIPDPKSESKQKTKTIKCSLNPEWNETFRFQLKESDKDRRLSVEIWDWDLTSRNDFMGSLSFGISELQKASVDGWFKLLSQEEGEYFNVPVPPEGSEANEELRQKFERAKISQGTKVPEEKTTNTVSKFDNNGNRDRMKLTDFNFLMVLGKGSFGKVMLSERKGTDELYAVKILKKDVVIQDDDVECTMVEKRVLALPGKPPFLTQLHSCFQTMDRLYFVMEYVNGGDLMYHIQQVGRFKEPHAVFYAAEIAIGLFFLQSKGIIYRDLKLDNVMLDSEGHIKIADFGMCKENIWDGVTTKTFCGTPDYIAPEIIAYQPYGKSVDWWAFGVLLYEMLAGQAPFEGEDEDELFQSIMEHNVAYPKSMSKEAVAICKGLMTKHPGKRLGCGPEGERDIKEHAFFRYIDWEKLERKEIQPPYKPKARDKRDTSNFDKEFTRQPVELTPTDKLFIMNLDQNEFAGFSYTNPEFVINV

[4] = target: 5'-AMP-activated protein kinase catalytic subunit alpha-2 (Homo sapiens) (UniProt P54646); experiment: Selectivity interaction (ActivX KiNativ screen (kinase selectivity in THP-1 cell lysates)) EUB0000639a PRKAA2; format: subcellular; settings: lysate, at 0.01 µM
Chain of 5'-AMP-activated protein kinase catalytic subunit alpha-2 (Homo sapiens) (P54646 whole entry, looked up): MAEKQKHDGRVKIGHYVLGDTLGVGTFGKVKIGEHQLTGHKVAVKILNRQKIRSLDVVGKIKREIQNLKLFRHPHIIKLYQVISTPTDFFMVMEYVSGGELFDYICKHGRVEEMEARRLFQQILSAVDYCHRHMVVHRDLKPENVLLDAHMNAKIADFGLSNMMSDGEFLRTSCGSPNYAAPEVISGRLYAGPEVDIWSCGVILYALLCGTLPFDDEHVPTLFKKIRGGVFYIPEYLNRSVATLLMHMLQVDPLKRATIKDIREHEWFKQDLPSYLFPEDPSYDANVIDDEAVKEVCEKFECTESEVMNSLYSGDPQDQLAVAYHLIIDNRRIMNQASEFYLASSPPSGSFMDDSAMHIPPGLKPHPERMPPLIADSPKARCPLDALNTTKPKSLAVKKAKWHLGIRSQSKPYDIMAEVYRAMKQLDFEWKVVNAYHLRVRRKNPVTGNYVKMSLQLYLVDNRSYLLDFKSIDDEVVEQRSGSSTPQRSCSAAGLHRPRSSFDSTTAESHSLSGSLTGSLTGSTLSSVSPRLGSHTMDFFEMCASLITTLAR

[5] = system: T2, Receptor-type tyrosine-protein kinase FLT3 (Homo sapiens), P36888 [N841I]; experiment: (§1) Selectivity interaction (KinomeScan (DiscoverX)) EUB0000595a FLT3; settings: at 10 µM
T2 sequence (whole entry): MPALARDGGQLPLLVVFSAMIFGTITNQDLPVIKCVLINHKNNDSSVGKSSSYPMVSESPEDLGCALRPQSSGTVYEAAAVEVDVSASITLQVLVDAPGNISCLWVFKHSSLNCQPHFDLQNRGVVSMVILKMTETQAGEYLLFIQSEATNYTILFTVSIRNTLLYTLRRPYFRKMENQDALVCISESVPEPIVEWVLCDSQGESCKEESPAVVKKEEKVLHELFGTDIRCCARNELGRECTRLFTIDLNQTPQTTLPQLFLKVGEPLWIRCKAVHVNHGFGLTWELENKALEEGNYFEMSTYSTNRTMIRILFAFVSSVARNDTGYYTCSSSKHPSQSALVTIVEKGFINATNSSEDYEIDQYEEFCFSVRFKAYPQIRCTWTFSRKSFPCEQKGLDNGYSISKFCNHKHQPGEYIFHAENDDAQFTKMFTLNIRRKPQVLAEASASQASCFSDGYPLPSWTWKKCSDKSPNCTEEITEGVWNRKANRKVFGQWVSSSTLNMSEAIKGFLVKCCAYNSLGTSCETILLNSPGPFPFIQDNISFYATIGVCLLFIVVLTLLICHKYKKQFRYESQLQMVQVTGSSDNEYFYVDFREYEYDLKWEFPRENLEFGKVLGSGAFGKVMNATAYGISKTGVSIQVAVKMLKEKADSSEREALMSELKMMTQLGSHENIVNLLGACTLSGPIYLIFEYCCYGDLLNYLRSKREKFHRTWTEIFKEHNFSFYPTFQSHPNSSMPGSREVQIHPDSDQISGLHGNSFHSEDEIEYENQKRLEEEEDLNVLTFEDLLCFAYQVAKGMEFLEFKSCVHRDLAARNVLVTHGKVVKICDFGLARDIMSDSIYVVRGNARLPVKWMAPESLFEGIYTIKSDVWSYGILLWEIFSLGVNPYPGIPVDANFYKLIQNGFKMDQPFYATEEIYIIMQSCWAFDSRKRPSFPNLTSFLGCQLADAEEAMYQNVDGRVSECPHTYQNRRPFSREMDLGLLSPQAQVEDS

[6] = target: Receptor-type tyrosine-protein kinase FLT3 (Homo sapiens) (UniProt P36888); experiment: as §1; settings: at 10 µM
[7] = target: T3, Ephrin type-B receptor 4 (Homo sapiens) (UniProt P54760); experiment: Selectivity interaction (KinomeScan (DiscoverX)) EUB0001079a EPHB4; settings: at 1 µM
T3 sequence (whole entry): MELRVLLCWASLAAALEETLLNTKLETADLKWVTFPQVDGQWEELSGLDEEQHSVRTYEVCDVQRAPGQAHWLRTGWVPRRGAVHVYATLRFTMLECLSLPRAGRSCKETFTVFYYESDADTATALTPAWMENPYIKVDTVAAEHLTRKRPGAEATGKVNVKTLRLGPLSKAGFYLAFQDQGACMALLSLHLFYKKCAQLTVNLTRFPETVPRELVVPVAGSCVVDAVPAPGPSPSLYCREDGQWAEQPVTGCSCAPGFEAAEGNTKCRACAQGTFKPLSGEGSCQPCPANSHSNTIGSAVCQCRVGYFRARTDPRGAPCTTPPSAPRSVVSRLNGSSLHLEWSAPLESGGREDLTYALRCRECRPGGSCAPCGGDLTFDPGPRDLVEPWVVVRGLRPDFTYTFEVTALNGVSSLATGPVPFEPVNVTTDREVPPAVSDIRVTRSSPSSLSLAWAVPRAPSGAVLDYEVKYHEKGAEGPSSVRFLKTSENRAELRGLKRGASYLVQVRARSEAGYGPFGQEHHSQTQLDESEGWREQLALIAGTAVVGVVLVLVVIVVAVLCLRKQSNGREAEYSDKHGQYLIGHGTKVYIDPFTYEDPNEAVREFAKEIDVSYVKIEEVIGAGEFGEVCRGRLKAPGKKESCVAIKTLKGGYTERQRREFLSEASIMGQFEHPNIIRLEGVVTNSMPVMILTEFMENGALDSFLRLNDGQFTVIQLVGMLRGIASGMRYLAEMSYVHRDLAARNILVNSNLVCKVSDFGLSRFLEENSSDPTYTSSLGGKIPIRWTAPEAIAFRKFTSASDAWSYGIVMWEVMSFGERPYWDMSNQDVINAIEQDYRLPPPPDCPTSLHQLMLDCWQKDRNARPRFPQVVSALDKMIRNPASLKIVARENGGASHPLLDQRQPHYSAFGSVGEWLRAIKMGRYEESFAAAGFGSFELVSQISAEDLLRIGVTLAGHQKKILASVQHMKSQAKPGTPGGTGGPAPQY

[8] = target: cAMP-dependent protein kinase catalytic subunit alpha (Homo sapiens, UniProt P17612); experiment: Selectivity interaction (KinomeScan (DiscoverX)) EUB0001079a PRKACA; settings: at 1 µM
[9] = target: Tyrosine-protein kinase Srms (Homo sapiens) (UniProt Q9H3Y6); experiment: Selectivity interaction (KinomeScan (DiscoverX)) EUB0000229b SRMS; settings: at 10 µM
Chain of Tyrosine-protein kinase Srms (Homo sapiens) (Q9H3Y6 whole entry): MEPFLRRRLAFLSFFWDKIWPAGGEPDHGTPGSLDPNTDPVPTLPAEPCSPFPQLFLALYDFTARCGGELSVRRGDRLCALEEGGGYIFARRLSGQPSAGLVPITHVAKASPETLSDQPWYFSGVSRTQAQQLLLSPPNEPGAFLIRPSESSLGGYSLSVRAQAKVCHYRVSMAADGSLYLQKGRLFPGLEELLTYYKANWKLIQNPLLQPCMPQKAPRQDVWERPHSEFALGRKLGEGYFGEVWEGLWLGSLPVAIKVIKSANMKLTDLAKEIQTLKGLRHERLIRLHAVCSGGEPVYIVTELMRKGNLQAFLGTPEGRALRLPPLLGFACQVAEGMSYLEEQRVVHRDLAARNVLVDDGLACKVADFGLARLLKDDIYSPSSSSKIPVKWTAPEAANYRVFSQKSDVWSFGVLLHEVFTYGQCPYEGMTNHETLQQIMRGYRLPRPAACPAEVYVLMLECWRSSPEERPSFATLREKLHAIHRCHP

[10] = target: Phosphatidylinositol 4-phosphate 5-kinase type-1 gamma (Homo sapiens) (UniProt O60331); experiment: Selectivity interaction (KinomeScan (DiscoverX)) EUB0000092b PIP5K1C; settings: at 10 µM
Chain of Phosphatidylinositol 4-phosphate 5-kinase type-1 gamma (Homo sapiens) (O60331 whole entry): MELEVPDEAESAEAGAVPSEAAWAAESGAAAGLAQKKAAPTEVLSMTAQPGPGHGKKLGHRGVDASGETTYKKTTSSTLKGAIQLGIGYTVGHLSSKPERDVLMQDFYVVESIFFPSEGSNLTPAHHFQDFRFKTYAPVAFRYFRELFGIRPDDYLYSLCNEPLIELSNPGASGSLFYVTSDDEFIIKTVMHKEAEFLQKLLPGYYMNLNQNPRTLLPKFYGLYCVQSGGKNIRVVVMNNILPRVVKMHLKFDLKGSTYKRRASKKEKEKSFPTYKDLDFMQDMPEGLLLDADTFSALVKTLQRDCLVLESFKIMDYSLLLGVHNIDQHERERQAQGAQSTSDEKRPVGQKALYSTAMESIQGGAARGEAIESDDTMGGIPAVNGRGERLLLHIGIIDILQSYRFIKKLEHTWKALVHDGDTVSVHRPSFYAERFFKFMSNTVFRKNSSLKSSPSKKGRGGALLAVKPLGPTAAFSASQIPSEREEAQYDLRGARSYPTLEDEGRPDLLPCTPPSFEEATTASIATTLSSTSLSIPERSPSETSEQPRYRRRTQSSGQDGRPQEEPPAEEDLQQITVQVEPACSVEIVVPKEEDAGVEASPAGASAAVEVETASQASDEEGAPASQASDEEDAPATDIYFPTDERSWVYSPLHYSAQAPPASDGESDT

[11] = target: Dual specificity mitogen-activated protein kinase kinase 1 (Homo sapiens, UniProt Q02750); experiment: Selectivity interaction (KinomeScan (DiscoverX)) EUB0000092b MAP2K1; settings: at 10 µM
Chain of Dual specificity mitogen-activated protein kinase kinase 1 (Q02750 whole entry): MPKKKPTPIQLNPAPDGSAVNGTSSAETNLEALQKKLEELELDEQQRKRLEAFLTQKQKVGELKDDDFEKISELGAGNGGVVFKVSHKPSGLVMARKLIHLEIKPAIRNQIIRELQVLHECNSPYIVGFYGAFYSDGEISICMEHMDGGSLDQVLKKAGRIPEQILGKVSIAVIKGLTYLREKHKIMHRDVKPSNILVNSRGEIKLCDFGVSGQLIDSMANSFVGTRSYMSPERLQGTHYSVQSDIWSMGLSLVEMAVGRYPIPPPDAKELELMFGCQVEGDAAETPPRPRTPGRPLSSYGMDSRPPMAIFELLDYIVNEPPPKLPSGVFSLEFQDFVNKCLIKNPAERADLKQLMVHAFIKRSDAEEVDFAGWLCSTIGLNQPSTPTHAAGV

Chain of Ephrin type-A receptor 5 (Homo sapiens) (P54756 whole entry): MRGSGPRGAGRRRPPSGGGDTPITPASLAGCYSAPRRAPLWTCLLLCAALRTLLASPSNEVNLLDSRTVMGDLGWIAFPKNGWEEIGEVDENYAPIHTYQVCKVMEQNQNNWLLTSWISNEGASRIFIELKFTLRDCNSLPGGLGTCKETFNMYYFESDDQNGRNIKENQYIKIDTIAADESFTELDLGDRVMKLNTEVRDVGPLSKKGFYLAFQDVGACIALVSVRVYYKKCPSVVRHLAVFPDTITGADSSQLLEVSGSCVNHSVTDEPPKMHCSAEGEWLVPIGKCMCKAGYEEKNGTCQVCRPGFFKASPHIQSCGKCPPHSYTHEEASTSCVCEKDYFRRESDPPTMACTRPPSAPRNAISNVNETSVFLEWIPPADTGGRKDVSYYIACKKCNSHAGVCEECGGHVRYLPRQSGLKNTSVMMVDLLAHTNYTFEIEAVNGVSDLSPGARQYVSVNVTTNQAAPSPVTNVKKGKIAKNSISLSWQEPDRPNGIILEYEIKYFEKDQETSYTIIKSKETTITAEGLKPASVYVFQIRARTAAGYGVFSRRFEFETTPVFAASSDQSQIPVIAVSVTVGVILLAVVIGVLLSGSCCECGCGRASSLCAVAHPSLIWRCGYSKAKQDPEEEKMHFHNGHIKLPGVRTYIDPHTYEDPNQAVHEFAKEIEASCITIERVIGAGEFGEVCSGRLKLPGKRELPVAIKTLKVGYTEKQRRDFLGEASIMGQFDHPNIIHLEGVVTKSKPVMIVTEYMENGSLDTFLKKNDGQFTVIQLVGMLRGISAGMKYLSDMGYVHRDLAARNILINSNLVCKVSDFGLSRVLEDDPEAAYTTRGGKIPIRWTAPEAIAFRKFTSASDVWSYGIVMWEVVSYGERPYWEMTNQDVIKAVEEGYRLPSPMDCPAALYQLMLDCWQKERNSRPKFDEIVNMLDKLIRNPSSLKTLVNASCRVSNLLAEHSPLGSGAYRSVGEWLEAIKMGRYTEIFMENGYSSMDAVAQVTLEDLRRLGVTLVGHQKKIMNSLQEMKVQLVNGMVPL

In the case of O=C(NOC[C@H](O)CO)c1ccc(F)c(F)c1Nc1ccc(I)cc1F, the % of control [1] is reported as 96%.

CNC(=O)Nc1ccc(-c2nc(N3CC4CCC(C3)O4)c3cnn(C4CCC5(CC4)OCCO5)c3n2)cc1 showed a % of inhibition [2] of 5%.

Cc1ccc(-c2ccc3c(ccc4sc5c(c43)NC[C@@H](C)NC5=O)n2)cn1 was tested, and the % of inhibition [3] was 8%.

CC[C@@H]1[C@H](F)C(=O)N[C@@H]1COc1nccc2cc(C(N)=O)c(OC)cc12 [ZIMLOVISERTIB] showed a % of inhibition [4] of 14.5%.

COCC(=O)NC/C=C/c1ccc2ncnc(Nc3ccc(Oc4ccc(C)nc4)c(C)c3)c2c1 [CP-724714] was tested, and the % of control [5] was 79% and the % of control [6] was 100%.

Nc1cnc(N2CCc3cc(S(=O)(=O)Nc4c(F)cc(Cl)cc4F)cc(N4CCCC4=O)c32)nc1 [TP-020n] was tested, and the % of control [7] was 100% and the % of control [8] was 100%.

With COc1cc(N(C)c2ccnc3ccc(C(F)(F)F)cc23)cc(OC)c1OC the % binding [9] was 60%.

With CCC(=O)N1CCN(c2ccc(-n3c(=O)ccc4cnc5ccc(-c6cnc7ccccc7c6)cc5c43)cc2C(F)(F)F)CC1 the % of control [10] was 80% and the % of control [11] was 100%.
